Results taken from ChEMBL document CHEMBL1201862, “PubChem BioAssay data set” (2004).
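Cultured in 96-well plates, cells were exposed to test compound for 48 hours across five concentrations. GI50 marks 50% less growth.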 The source made the active and inactive calls. Cut-off read from the data, not from the text of the source: active = GI50 up to about 1.1 µM and inactive = higher.

Legend:
Test in all cases: growth of human tumour cells (NCI), 48 h
M19-MEL = system: M19-MEL
SF-539 = system: SF-539
UO-31 = system: UO-31
NCI-H23 = system: NCI-H23
UACC-62 = system: UACC-62
OVCAR-4 = system: OVCAR-4
SK-MEL-28 = system: SK-MEL-28
SF-268 = system: SF-268
HL-60 = system: HL-60
NCI-H226 = system: NCI-H226
HCT-116 = system: HCT-116
HOP-92 = system: HOP-92
IGROV-1 = system: IGROV-1
Malme-3M = system: Malme-3M
TK-10 = system: TK-10
MOLT-4 = system: MOLT-4
SK-OV-3 = system: SK-OV-3

Compound	GI50 (M19-MEL)	GI50 (SF-539)	GI50 (UO-31)	GI50 (NCI-H23)	GI50 (UACC-62)	GI50 (OVCAR-4)	GI50 (SK-MEL-28)	GI50 (SF-268)	GI50 (HL-60)	GI50 (NCI-H226)	GI50 (HCT-116)	GI50 (HOP-92)	GI50 (IGROV-1)	GI50 (Malme-3M)	GI50 (TK-10)	GI50 (MOLT-4)	GI50 (SK-OV-3)
C#CCNC(=O)NC(CCCNC(=O)OCc1ccccc1)C(=O)OCc1ccccc1 (stereo not given)	77.1 µM (inactive)	50.2 µM (inactive)	> 100 µM (inactive)	> 100 µM (inactive)	34.8 µM (inactive)	> 100 µM (inactive)	> 100 µM (inactive)	> 100 µM (inactive)	25.4 µM (inactive)	> 100 µM (inactive)	> 100 µM (inactive)	19.3 µM (inactive)	> 100 µM (inactive)	51.9 µM (inactive)	> 100 µM (inactive)	> 100 µM (inactive)	> 100 µM (inactive)
COc1ccc(C2=NOP(c3ccccc3)(c3ccccc3)(c3ccccc3)C2)cc1	21.7 µM (inactive)	29.7 µM (inactive)	12.9 µM (inactive)	19.1 µM (inactive)	13.8 µM (inactive)	29.6 µM (inactive)	27.9 µM (inactive)	40.4 µM (inactive)	2.13 µM (inactive)	25.9 µM (inactive)	2.39 µM (inactive)	6.46 µM (inactive)	3.35 µM (inactive)	21.9 µM (inactive)	> 65.6 µM (inactive)	7.43 µM (inactive)	43.6 µM (inactive)
NC(=O)CN(CC(N)=O)C(N)=O	> 100 µM (inactive)	> 100 µM (inactive)	> 100 µM (inactive)	> 100 µM (inactive)	> 100 µM (inactive)	> 100 µM (inactive)	> 100 µM (inactive)	> 100 µM (inactive)	> 100 µM (inactive)	> 100 µM (inactive)	> 100 µM (inactive)	> 100 µM (inactive)	> 100 µM (inactive)	> 100 µM (inactive)	> 100 µM (inactive)	> 100 µM (inactive)	> 100 µM (inactive)
COc1cc(Br)c(C2OCCCO2)cc1OCc1ccccc1	> 100 µM (inactive)	73.1 µM (inactive)	28.2 µM (inactive)	85.5 µM (inactive)	73.5 µM (inactive)	69.5 µM (inactive)	60.3 µM (inactive)	39 µM (inactive)	38.5 µM (inactive)	17.5 µM (inactive)	39.7 µM (inactive)	9.86 µM (inactive)	> 100 µM (inactive)	–	> 100 µM (inactive)	41.6 µM (inactive)	> 100 µM (inactive)
CC(=O)O[C@H]1CCC2[C@@H]3CCC4Nc5c(cnn5-c5ccccc5)C[C@]4(C)C3CC[C@@]21C (stereo not given in full)	11.7 µM (inactive)	17.5 µM (inactive)	11 µM (inactive)	4.83 µM (inactive)	10.4 µM (inactive)	21.4 µM (inactive)	–	32.5 µM (inactive)	7.64 µM (inactive)	11.5 µM (inactive)	14.3 µM (inactive)	–	20.7 µM (inactive)	11.8 µM (inactive)	19.2 µM (inactive)	6.93 µM (inactive)	18.7 µM (inactive)
CCc1ccccc1-n1c2nc(=O)n(C)c(=O)c-2nc2ccccc21	1.85 µM (inactive)	14.1 µM (inactive)	21.5 µM (inactive)	4.03 µM (inactive)	2.2 µM (inactive)	4.89 µM (inactive)	–	11 µM (inactive)	–	18.4 µM (inactive)	12.6 µM (inactive)	–	17.5 µM (inactive)	5.7 µM (inactive)	8.95 µM (inactive)	13.2 µM (inactive)	40.2 µM (inactive)
CCCN(CCCCC(NC(C)=O)C(=O)NCc1ccccc1)C(=O)NCCCl (stereo not given)	> 100 µM (inactive)	> 100 µM (inactive)	> 100 µM (inactive)	> 100 µM (inactive)	> 100 µM (inactive)	> 100 µM (inactive)	> 100 µM (inactive)	> 100 µM (inactive)	> 100 µM (inactive)	> 100 µM (inactive)	59.2 µM (inactive)	> 100 µM (inactive)	–	> 100 µM (inactive)	> 100 µM (inactive)	> 100 µM (inactive)	–
COc1ccc(C(C#N)NNc2nc(C)cc(O)n2)cc1OC (stereo not given)	> 100 µM (inactive)	> 100 µM (inactive)	> 100 µM (inactive)	> 100 µM (inactive)	> 100 µM (inactive)	> 100 µM (inactive)	> 100 µM (inactive)	> 100 µM (inactive)	> 100 µM (inactive)	> 100 µM (inactive)	> 100 µM (inactive)	> 100 µM (inactive)	> 100 µM (inactive)	> 100 µM (inactive)	> 100 µM (inactive)	> 100 µM (inactive)	> 100 µM (inactive)
COc1ccc2c(c1)C(CCN)C(=O)N2 (stereo not given)	> 100 µM (inactive)	> 100 µM (inactive)	–	> 100 µM (inactive)	> 100 µM (inactive)	> 100 µM (inactive)	> 100 µM (inactive)	> 100 µM (inactive)	> 100 µM (inactive)	–	> 100 µM (inactive)	> 100 µM (inactive)	> 100 µM (inactive)	> 100 µM (inactive)	> 100 µM (inactive)	> 100 µM (inactive)	> 100 µM (inactive)
O=C(c1ccco1)N(C(=S)N1CCN(c2ccccn2)CC1)C1CCCCC1	> 100 µM (inactive)	> 100 µM (inactive)	83.4 µM (inactive)	> 100 µM (inactive)	> 100 µM (inactive)	> 100 µM (inactive)	> 100 µM (inactive)	> 100 µM (inactive)	> 100 µM (inactive)	> 100 µM (inactive)	> 100 µM (inactive)	> 100 µM (inactive)	> 100 µM (inactive)	> 100 µM (inactive)	> 100 µM (inactive)	83.4 µM (inactive)	> 100 µM (inactive)
COc1ccc(/C=C/C(=O)c2sc(NC(=S)NC(=O)c3ccc(Cl)cc3)nc2C)cc1OC	53.2 µM (inactive)	60.4 µM (inactive)	64 µM (inactive)	33.5 µM (inactive)	18.4 µM (inactive)	52.5 µM (inactive)	35.9 µM (inactive)	94.8 µM (inactive)	30.3 µM (inactive)	37.2 µM (inactive)	51.4 µM (inactive)	–	43.1 µM (inactive)	37.2 µM (inactive)	> 100 µM (inactive)	27.2 µM (inactive)	> 100 µM (inactive)
CC1CCC2(C)C(CC=C(C=O)C2(O)C=O)C12CO2 (stereo not given)	1.73 µM (inactive)	2.19 µM (inactive)	1.81 µM (inactive)	2.25 µM (inactive)	1.64 µM (inactive)	2.23 µM (inactive)	1.79 µM (inactive)	4.25 µM (inactive)	0.877 µM (active)	0.665 µM (active)	1.49 µM (inactive)	2.01 µM (inactive)	2.32 µM (inactive)	2.64 µM (inactive)	1.97 µM (inactive)	1.87 µM (inactive)	3.27 µM (inactive)
O=C1c2ccncc2C(=O)c2c(O)ccc(O)c21	1.32 µM (inactive)	3.89 µM (inactive)	16.2 µM (inactive)	–	3.12 µM (inactive)	11.1 µM (inactive)	11.9 µM (inactive)	11.1 µM (inactive)	2.22 µM (inactive)	15.7 µM (inactive)	2.91 µM (inactive)	17.7 µM (inactive)	12.5 µM (inactive)	1.69 µM (inactive)	27.5 µM (inactive)	5.89 µM (inactive)	–
CNC(=O)N(CCCCC(NC(C)=O)C(=O)NCc1ccccc1)Cc1ccccc1 (stereo not given)	> 100 µM (inactive)	> 100 µM (inactive)	> 100 µM (inactive)	> 100 µM (inactive)	> 100 µM (inactive)	> 100 µM (inactive)	> 100 µM (inactive)	> 100 µM (inactive)	–	> 100 µM (inactive)	> 100 µM (inactive)	> 100 µM (inactive)	> 100 µM (inactive)	> 100 µM (inactive)	> 100 µM (inactive)	> 100 µM (inactive)	> 100 µM (inactive)
COc1cc(CNc2nc3ccc(C(F)(F)F)cc3nc2-c2ccccc2)cc(OC)c1OC	46.2 µM (inactive)	46.7 µM (inactive)	5.93 µM (inactive)	27.9 µM (inactive)	93.1 µM (inactive)	19.4 µM (inactive)	55.3 µM (inactive)	19.5 µM (inactive)	5.55 µM (inactive)	–	15.4 µM (inactive)	–	67.3 µM (inactive)	29.6 µM (inactive)	27.1 µM (inactive)	4.4 µM (inactive)	7.18 µM (inactive)
COc1cc(CNC2c3cc4c(cc3C(c3cc(OC)c(OC)c(OC)c3)[C@H]3C(=O)OCC23)OCO4)cc(OC)c1OC (stereo not given in full)	1.28 µM (inactive)	0.191 µM (active)	0.792 µM (active)	0.267 µM (active)	0.156 µM (active)	–	–	0.372 µM (active)	0.223 µM (active)	0.128 µM (active)	0.245 µM (active)	0.528 µM (active)	1.1 µM (active)	> 100 µM (inactive)	> 100 µM (inactive)	0.367 µM (active)	0.385 µM (active)
Nc1c(-c2ccccc2-c2c(N)[n+]([O-])c3ccccc3[n+]2[O-])[n+]([O-])c2ccccc2[n+]1[O-]	8.41 µM (inactive)	17.5 µM (inactive)	10 µM (inactive)	15.6 µM (inactive)	3.7 µM (inactive)	4.89 µM (inactive)	23 µM (inactive)	3.16 µM (inactive)	3.69 µM (inactive)	19.5 µM (inactive)	6.71 µM (inactive)	> 100 µM (inactive)	–	35 µM (inactive)	33.7 µM (inactive)	2.1 µM (inactive)	22.9 µM (inactive)
